This passage reports IC50 results from patent publication US11414431B2, “Substituted pyrazolo[1,5-a]pyrimidines as TYK2 inhibitors” (Nimbus Lakshmi, Inc., priority 2018, dated 2022).

Where only a bound is given, the exact number is not on record here.

The assay deals with IL-12 induced STAT4 phosphorlyation mediated by TYK2/JAK2. As to the kind of experiment: IL-12 Induced pSTAT4 in Human PBMC. The assay is classed as cell-based. Particulars: 1.7 ng/mL IL-12 for 30 minutes. How it is done:
Human PBMC were isolated from buffy coat and are stored frozen for assays as needed. […] 15 μL of compound or DMSO was added to the well at the desired concentrations and incubated at 1 hr at 37° C. 15 μL of stimulus (final concentration of 1.7 ng/mL IL-12) was added for 30 minutes prior to pSTAT4 and total STAT4 analysis using cell lysates prepared and analyzed by MSD reagents as per manufacturer protocol. The final DMSO concentration of compound in the assay was 0.1%.
The IL-12 induced pSTAT4 assay evaluates the inhibition of IL-12 induced STAT4 phosphorlyation mediated by TYK2/JAK2 (heterpdimeric complex).

Take `CNc1cc(Nc2cccn(C(C)C)c2=O)nc2c(C(=O)NC3CC[C@@H]3F)cnn12` (mixture of isomers) [Compound I-145]: the IC50 is less than 0.1 µM.
Same read-out and setting: next, `CNc1cc(Nc2cccn([C@H]3C[C@@H](OC)C3)c2=O)nc2c(C(=O)NC3CC[C@@H]3F)cnn12` (mixture of isomers) [Compound I-173]: less than 0.1 µM; `CNc1cc(Nc2cccn([C@H]3C[C@H](OC)C3)c2=O)nc2c(C(=O)NC3CC[C@@H]3F)cnn12` (mixture of isomers) [Compound I-176]: less than 0.1 µM.
`CO[C@@H]1CCC1NC(=O)c1cnn2c3c(c(Nc4cccn(C(C)C)c4=O)nc12)OCCN3` (stereo in doubt) [Compound I-759, 5-((1-Isopropyl-2-oxo-1,2-dihydropyridin-3-yl)amino)-N-(2-methoxycyclobutyl)-2,3-dihydro-1H-pyrazolo[5′,1′:2,3]pyrimido[5,4-b][1,4]oxazine-7-carboxamide] gave an IC50 (0.5 h) of less than 0.1 µM.
On the same count and under the same terms, to `CNc1cc(-c2cn(CC(=O)N(C)C)c3ncccc23)nc2c(C(=O)NC3CC[C@@H]3OC)cnn12` (stereo in doubt) [Compound I-920, 5-(1-(2-(dimethylamino)-2-oxoethyl)-1H-pyrrolo[2,3-b]pyridin-3-yl)-N-(2-methoxycyclobutyl)-7-(methylamino)pyrazolo[1,5-a]pyrimidine-3-carboxamide] belongs 0.1 to 0.5 µM; to `CNc1cc(-c2cn(CC(=O)N3CCC3)c3ncccc23)nc2c(C(=O)NC3CC[C@@H]3OC)cnn12` (stereo in doubt) [Compound I-928, 5-(1-(2-(azetidin-1-yl)-2-oxoethyl)-1H-pyrrolo[2,3-b]pyridin-3-yl)-N-(2-methoxycyclobutyl)-7-(methylamino)pyrazolo[1,5-a]pyrimidine-3-carboxamide], 0.1 to 0.5 µM; to `CNc1cc(-c2cnc3n(CC(C)(C)O)cccc2-3)nc2c(C(=O)NC3CC[C@@H]3OC)cnn12` (stereo in doubt) [Compound I-979, 5-(7-(2-hydroxy-2-methylpropyl)-7H-pyrrolo[2,3-b]pyridin-3-yl)-N-(2-methoxycyclobutyl)-7-(methylamino)pyrazolo[1,5-a]pyrimidine-3-carboxamide], 0.1 to 0.5 µM.
For the setting “0.5 h”, `CNc1cc(-c2cnc3n(CCCN4CCOCC4)cccc2-3)nc2c(C(=O)NC3CC[C@@H]3OC)cnn12` (stereo in doubt) [Compound I-981, N-(2-methoxycyclobutyl)-7-(methylamino)-5-(7-(3-morpholinopropyl)-7H-pyrrolo[2,3-b]pyridin-3-yl)pyrazolo[1,5-a]pyrimidine-3-carboxamide] yielded an IC50 of 0.1 to 0.5 µM.
Turning to `CNc1cc(Nc2cccn([C@H]3C[C@H](F)C3)c2=O)nc2c(C(=O)NC3CC[C@H]3O)cnn12` (stereo partly drawn) [Compound I-11, 5-((1-((1r,3S)-3-Fluorocyclobutyl)-2-oxo-1,2-dihydropyridin-3-yl)amino)-N-(2-hydroxycyclobutyl)-7-(methylamino)pyrazolo[1,5-a]pyrimidine-3-carboxamide], the IC50 (0.5 h) fell in the range of 0.1 to 0.5 µM.
On the same count and under the same terms, next, `CNc1cc(Nc2cccn([C@H]3C[C@@H]3F)c2=O)nc2c(C(=O)N[C@H]3CC[C@H]3O)cnn12` [Compound I-12, 5-((1-((1S,2S)-2-Fluorocyclopropyl)-2-oxo-1,2-dihydropyridin-3-yl)amino)-N-((1S,2R)-2-hydroxycyclobutyl)-7-(methylamino)pyrazolo[1,5-a]pyrimidine-3-carboxamide]: less than 0.1 µM.
As to `CNc1cc(Nc2cccn([C@H]3C[C@H](F)C3)c2=O)nc2c(C(=O)N[C@H]3CC[C@H]3O)cnn12` [Compound I-16, 5-((1-((1r,3S)-3-Fluorocyclobutyl)-2-oxo-1,2-dihydropyridin-3-yl)amino)-N-((1S,2R)-2-hydroxycyclobutyl)-7-(methylamino)pyrazolo[1,5-a]pyrimidine-3-carboxamide], the IC50 is less than 0.1 µM.

One may read the IC50 as the midpoint of a concentration-inhibition curve. Low values mean greater potency in that assay, high ones weaker potency in that assay.
